# Patent US20040171692A1, “Modulation of bone formation” (priority 2003, published 2004)
# “Also recorded” adds a separate entry of the source.
# Experiments:
# whole bone marrow cells = test: Fibroblastic colony forming unit (CFU-f) cultures, colony numbers; assay type: cell-based, rat
# Description: Whole bone marrow cells (BMC's) were obtained from the tibias and femurs of 125 g male Wistar rats. The bones were removed under aseptic conditions and all soft adherent tissue removed. An end of each bone was removed, a hole made in the opposing end with an 18 gauge syringe needle, and the cells isolated centrifugally [Dobson K. R., et al., Calcif. tissue Int., 65:411-413 (1999)]. The cells were dispersed in 10 ml DMEM (containing 12% FCS, 1×10^−8 M dexamethasone and […] ascorbic acid) by repeated pipetting, and a single-cell suspension achieved by forcefully expelling the cells through a 20 gauge syringe needle. The cells were then used in the protocols described below. To analyse the numbers of fibroblastic-colony forming units (CFU-f) in either whole BMC or high density non-adherent stromal precursor (NASP) cell cultures, 10^6 nucleated BMC, or the non-adherent cells from the high density NASP cell cultures, were plated out on 55 cm^2 petri dishes in DMEM containing; 12% FCS, 1×10^−8 M dexamethasone and 50 μg/ml ascorbic acid. In the case of the CFU-f analysis of whole BMC, the test agents were added once at the beginning of the culture period. In the case of NASP cell cultures, the test agents were added at the beginning of the NASP cell cultures themselves and the CFU-f assay only used to assess the number of CFU-f generated during the NASP cell culture. The medium was changed after 5 days and, thereafter, twice weekly. The cultures were maintained for 18 days, after which the cells were washed with PBS and fixed, by the addition of cold ethanol. […] The cultures were then photographed using a digital camera and the APase positive, calcium positive, collagen positive and total colonies quantitated using Bioimage “Intelligent Quantifier” image analysis software [Dobson K., et al., A cost effective method for the automatic quantitative analysis of fibroblastic-colony forming units with osteoblastic potential. […]
# [1] = system: bone forming cells (whole bone marrow cells, NASP cells, neonatal rat calvariae); test: CFU-f and NASP cell assays in combination with neonatal rat calvarial organ cultures (bone anabolic activity); assay type: cell-based; conditions: for bone anabolic activity: useful = equivalent activity to that of PGE2, FIGS. 4-7
# Description: The main reason for the lack of understanding of the cellular basis for the actions of bone anabolic drugs is that there exists, at present, no single in vitro assay which responds to these drugs in an appropriate manner. However, we have now developed a number of assays which, when used in combination with neonatal rat calvarial organ cultures, are able to predict bone anabolic agents.
# Whole bone marrow cells (BMC's) were obtained from the tibias and femurs of 125 g male Wistar rats. The bones were removed under aseptic conditions and all soft adherent tissue removed. An end of each bone was removed, a hole made in the opposing end with an 18 gauge syringe needle, and the cells isolated centrifugally [Dobson K. R., et al., Calcif. tissue Int., 65:411-413 (1999)]. The cells were dispersed in 10 ml DMEM (containing 12% FCS, 1×10^−8 M dexamethasone and […] ascorbic acid) by repeated pipetting, and a single-cell suspension achieved by forcefully expelling the cells through a 20 gauge syringe needle. The cells were then used in the protocols described below.
# To analyse the numbers of fibroblastic-colony forming units (CFU-f) in either whole BMC or high density non-adherent stromal precursor (NASP) cell cultures, 10^6 nucleated BMC, or the non-adherent cells from the high density NASP cell cultures, were plated out on 55 cm^2 petri dishes in DMEM containing; 12% FCS, 1×10^−8 M dexamethasone and 50 μg/ml ascorbic acid. In the case of the CFU-f analysis of whole BMC, the test agents were added once at the beginning of the culture period. In the case of NASP cell cultures, the test agents were added at the beginning of the NASP cell cultures themselves and the CFU-f assay only used to assess the number of CFU-f generated during the NASP cell culture. The medium was changed after 5 days and, thereafter, twice weekly. The cultures were maintained for 18 days, after which the cells were washed with PBS and fixed, by the addition of cold ethanol.
# After fixation, the cultures were stained for alkaline phosphatase (APase) positive, calcium positive, collagen positive and total colonies as described by Scutt & Bertram (J. Bone and Mineral Res. 10:474-489, 1995). The cultures were then photographed using a digital camera and the APase positive, calcium positive, collagen positive and total colonies quantitated using Bioimage “Intelligent Quantifier” image analysis software [Dobson K., et al., A cost effective method for the automatic quantitative analysis of fibroblastic-colony forming units with osteoblastic potential. Calcif. Tissue Int. 65:166-172 (1999)].
# BMC were cultured at a density of 1.5×10^6 cells per 2 cm^2 well in 0.75 ml DMEM containing 12% FCS, 10^−8 M dexamethasone and 50 μg/ml ascorbic acid. Solutions of the agents to be tested were added to the wells and then cultured for 4 days. The numbers of NASP cells present in the supernatant were then quantitated as described above for CFU-f cultures. To do this, the cultures were gently agitated and the supernatants, containing the non-adherent cells, were transferred to 55 cm^2 petri dishes. 10 ml of DMEM containing 12% FCS, 1×10^−8 M dexamethasone, 50 μg/ml ascorbic acid was added and the cultures maintained further as described above for CFU-f cultures.
# One day old rat pups were killed and the calvariae (skull cases) dissected out. The calvariae were then cut along the sagittal suture to give two hemicalvariae per foetus. Each bone was cultured in 2 ml DMEM containing 1 mg/ml BSA, 50 μg/ml ascorbic acid, 60 μg/ml penicillin, and 50 μg/ml streptomycin and 1×10^−8 M dexamethasone in 35 mm tissue culture wells. After 24 h, the medium was replaced with fresh medium, any test agent added, and the tissue cultured for a further 48 h.
# In this assay, each bone was pulsed with 10 μCi of [^3H]proline for 24 h at the end of the culture period. The bones were washed successively in trichloroacetic acid (TCA), acetone, and ether, and then dried. […]
# MB-1.8 cells = MB-1.8 cells exposed to TZD; cited from earlier work
SMILES,colony numbers (whole bone marrow cells),bone anabolic activity [1],further results
"CCCCCCCCCCCCCCCC(=O)OC [Methyl palmitate, methyl palmitate]",stimulation,–,–
c1cc2c(cc1[C@H]1OC[C@H]3[C@@H]1CO[C@@H]3c1ccc3c(c1)OCO3)OCO2 [sesamin],–,useful activity,–
"CN(CCOc1ccc(CC2SC(=O)NC2=O)cc1)c1ccccn1 (centres unmarked) [TZD, 5-(4-{[N-methyl-N(2-pyridyl)-amino]ethoxy}benzyl)thiazolidine-2,4-dione]",–,–,alkaline phosphatase activity and expression of osteoblast-associated genes (MB-1.8 cells): decrease; expression of adipocyte fatty acid protein (MB-1.8 cells): enhancing
CCCCC[C@H](O)/C=C/[C@H]1C=CC(=O)[C@@H]1C/C=C\CCCC(=O)O [PGA2],–,useful activity,–
CC#CCC(C)[C@H](O)/C=C/[C@@H]1[C@H]2C/C(=C/CCCC(=O)O)C[C@H]2C[C@H]1O (some centres unmarked) [iloprost],stimulation comparable with that of PGA1,–,–
CCCCCCCC/C=C\CCCCCCCC(=O)O [oleic acid],–,useful activity,–
"CCCCC/C=C\C/C=C\CCCCCCCC(=O)O [Linoleic acid, linoleic acid]",–,showed bone anabolic activity,–
CCCCC[C@H](O)/C=C/[C@H]1C=CC(=O)[C@@H]1CCCCCCC(=O)O [PGA1],significant dose dependent increase,–,"response in all three assays ([1]; alkaline phosphatase activity, calcium uptake and collagen synthesis, FIG. 1): positive response; bone anabolic activity relative to PGE2 ([1]; compared with PGE2, FIGS. 1-3): comparable with that produced by PGE2; also recorded: at least as good as that of PGE2"
